Values after ≈ are worked out from the molar mass of the structure shown.
Key:
normal bone marrow cells = assay: Growth inhibition of normal mouse bone marrow cells (GD50); type: cell-based, mice (SL-strain); conditions: Bone marrow cell, 72 h, 3 days, 37° C., Trypan Blue dye-exclusion, read-out: GD50 Normal mouse bone marrow cells (B)
Method: (§1) BALB/c mice at a concentration of 1 μg/ml (Cancer Res. 39, pp. 4681-4686 (1979)). The present inventors conducted comparative tests between octadecyl phospholipid and the corresponding tridecyl compound as well as tetradecyl compound on the activity (GD50) to inhibit the multiplication of spontaneous myeloid leukemia cells M1 in mice. […] The effect on the corresponding normal cells, i.e. on the myeloid cells of normal mice, is far weaker in the tetradecyl compounds. Therefore, in view of the balance of the inhibiting activity against multiplication of tumor cells and the safety (Chemotherapy Coefficient), it can be said that tetradecyl phospholipid is preferable to octadecyl phospholipid.
(§2) By employing Eagle's minimum essential medium supplemented with 10% heat-inactivated calf serum, incubation of spontaneous myeloid leukemia M1 cells (Resistant clone) harvested from mice (SL-strain) and normal bone marrow cells of mice of the same strain was conducted, in the presence or absence of the test compound in various concentrations, in a humified CO2 incubator at 37° C. for 3 days. The number of viable cells was determined by the Trypan Blue Stain dye-exclusion test. The concentration of the tested compound for 50% inhibiting the proliferation of M1 cells or normal bone marrow cells (GD50) was determined, and the result was shown in Table 1.

[1] = tested on: spontaneous myeloid leukemia M1 cells; assay: Growth inhibition of cultured spontaneous mouse myeloid leukemia M1 cells (GD50); type: cell-based, mice (SL-strain); conditions: for IC50: Mus musculus, 72 h, 3 days, 37° C., Trypan Blue dye-exclusion, M1 Resistant clone; for B/A (GD50 normal bone marrow cells / GD50 M1 cells): ratio of GD50 values, 4320 min
Method: as §1, §2

| Structure (SMILES) | IC50 (normal bone marrow cells) [µg/mL] | IC50 [1] [µg/mL] | B/A (GD50 normal bone marrow cells / GD50 M1 cells) [1] |
| --- | --- | --- | --- |
| CCCCCCCCCCCCCCOCC(COP(=O)([O-])OCC[N+](C)(C)C)OC (stereo not drawn) [drawing 18] | 40 (≈ 85.5 µM) | 1.2 (≈ 2.57 µM) | 33 |
| CCCCCCCCCCCCCCCCCCOCC(COP(=O)([O-])OCC[N+](C)(C)C)OC (stereo not drawn) [drawing 17, reference compound] | 15 (≈ 28.6 µM) | 0.6 (≈ 1.15 µM) | 25 |
